Counter-ions that a name gives are not always drawn.
Target: recombinant human AMCase (Homo sapiens, UniProt Q9BZP6)
Assay: Human AMCase Activity Assay
Assay type: biochemical
Details: recombinant hAMCase, 4-methylumbelliferyl chitobioside substrate, citrate buffer pH 5.2, 37° C., 60 minutes; read-out: Activity (IC50 value key)
How it was run: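 Recombinant human enzyme with fluorogenic 4-methylumbelliferyl β-D-N,N′-diacetylchitobioside substrate in citrate buffer, pH 5.2, 60 min at 37 °C in the dark with shaking. Read-out is 4MU fluorescence at 460 nm.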

Chain of recombinant human AMCase (Q9BZP6 22-476): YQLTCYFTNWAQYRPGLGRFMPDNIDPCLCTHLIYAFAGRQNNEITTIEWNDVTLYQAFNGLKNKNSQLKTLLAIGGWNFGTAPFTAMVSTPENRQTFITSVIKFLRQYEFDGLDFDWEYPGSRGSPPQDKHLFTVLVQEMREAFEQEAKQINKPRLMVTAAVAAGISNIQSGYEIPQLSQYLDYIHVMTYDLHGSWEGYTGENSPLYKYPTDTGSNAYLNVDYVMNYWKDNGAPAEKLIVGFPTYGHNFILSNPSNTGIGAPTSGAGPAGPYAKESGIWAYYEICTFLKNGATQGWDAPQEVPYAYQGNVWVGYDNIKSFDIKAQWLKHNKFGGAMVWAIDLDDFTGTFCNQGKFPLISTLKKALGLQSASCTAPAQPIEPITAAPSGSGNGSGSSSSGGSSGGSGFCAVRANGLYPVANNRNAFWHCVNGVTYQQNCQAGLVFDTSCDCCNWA

IC50 [µM] | Compound
> 100 | Nc1n[nH]c(N2CCC(C(=O)NCc3cc(C(F)(F)F)cc(C(F)(F)F)c3)CC2)n1 [Example 255, 1-(3-amino-1H-1,2,4-triazol-5-yl)-N-(3,5-bis(trifluoromethyl)benzyl)piperidine-4-carboxamide]
1 to 10 | Nc1n[nH]c(N2CCC(CCCCO)(NS(=O)(=O)Cc3ccc(Br)cc3)CC2)n1 [Example 256, N-(1-(3-amino-1H-1,2,4-triazol-5-yl)-4-(4-hydroxybutyl)piperidin-4-yl)-1-(4-bromophenyl)methanesulfonamide]
0.1 to 1 | Nc1n[nH]c(N2CCN(C(CCc3ccc(Br)cc3)Cc3ccccc3)CC2)n1 (stereo not shown) [Example 257, 5-(4-(4-(4-bromophenyl)-1-phenylbutan-2-yl)piperazin-1-yl)-1H-1,2,4-triazol-3-amine trifluoroacetate]
> 100 | CC(C)(Oc1ccc(Cl)cc1)C(=O)N1CCN(c2nc(N)n[nH]2)CC1 [Example 258, 1-(4-(3-amino-1H-1,2,4-triazol-5-yl)piperazin-1-yl)-2-(4-chlorophenoxy)-2-methylpropan-1-one]
